Patent US20160058735A1, “METHODS OF TREATING HYPERHIDROSIS” (Dermira, Inc., priority 2014, published 2016)

How the values were obtained:
[1] = tested on: patients with severe primary axillary hyperhidrosis; experiment: Phase 2a clinical trial: disease severity by Hyperhidrosis Disease Severity Scale (HDSS); assay type: in vivo, human; conditions: Formulation A, 2% and 4% pooled; first on-treatment assessment, about one week
Description: (§1) The completed Phase 2a clinical trial was a randomized, double-blind study in 38 patients with severe primary axillary hyperhidrosis.
(§2) Patients were instructed to apply the study product once daily for four weeks using wipes saturated with either the topical formulation of the reference agent or vehicle only. Efficacy was evaluated based on axillary sweat production and disease severity. Assessments were conducted approximately weekly during the four-week treatment period and two weeks after the end of this treatment period. Disease severity was measured using a widely-used patient-reported outcome tool called the Hyperhidrosis Disease Severity Scale, or HDSS, wherein patients rate the severity of their disease on a four-point scale. Patients who rate the severity of their disease as a three or a four on the HDSS are considered to have severe disease, while those who rate it as one or two are considered to have mild or moderate disease. All 38 patients enrolled in the clinical trial rated the severity of their disease as a three or a four on the HDSS prior to the start of treatment. Trial inclusion criteria required that prior to the start of treatment, all patients produce at least 50 mg of sweat in each axilla over a five-minute period.

[2] = tested on: patients with severe primary axillary hyperhidrosis; experiment: Study DRM04-HH01 (Phase 2b): adverse events
Description: Assessments were conducted approximately weekly during the four-week treatment period and the two-week period after the end of this treatment period. […] Trial inclusion criteria required that prior to the start of treatment, all patients produce at least 50 mg of sweat in each axilla over a five-minute period.

[3] = tested on: patients with severe primary axillary hyperhidrosis; experiment: Phase 2a clinical trial: axillary sweat production; assay type: in vivo, human
Description: as §1
as §2, with “Efficacy” for “Patients were instructed to apply the study product once daily for four weeks using wipes saturated with either the topical formulation of the reference agent or vehicle only. Efficacy”, “All 38 patients enrolled in the clinical trial rated the severity of their disease as a three or a four on the HDSS prior to the start of treatment.” left out

Compound: C[N+]1(C)CCC(OC(=O)C(O)(c2ccccc2)C2CCCC2)C1.[Br-] (stereo not drawn) [reference agent, threo-glycopyrronium bromide]
- patients reporting improvement in disease severity (HDSS) from severe to mild or moderate [1]: Nine of 12
- patients who withdrew from the study due to adverse events ([2]; 1% cohort): 2.6%
- patients who withdrew from the study due to adverse events ([2]; 2% cohort): 5.0%
- patients who withdrew from the study due to adverse events ([2]; 3% cohort): 2.5%
- patients who withdrew from the study due to adverse events ([2]; 4% cohort): 20.0%
- most common TEAEs ([2]; in vivo): dry mouth, upper respiratory tract infection, dry skin and blurred vision
- treatment-related serious adverse events ([2]; in vivo): No treatment-related serious adverse events were reported
- sweat production on average lower than at the start of therapy ([3]; Formulation A, nine patients, end of four-week treatment period): 61%
- reversibility of effect on sweating and disease severity ([3]; two weeks following cessation of therapy): appeared to be reversible
